Paper PMC7734625, “Stabilization Strategies for Linear Minigastrin Analogues: Further Improvements via the Inclusion of Proline into the Peptide Sequence” (Journal of Medicinal Chemistry, 2020)
Read-outs that look alike come from different tables or passages of the source. Non-standard residues stand in square brackets, D forms with d. Residues, ends and D or L forms follow the SMILES beside them. *: point of attachment. DOTA = O=C(O)CN1CCN(CC(=O)O)CCN(CC(=O)*)CCN(CC(=O)O)CC1; 1Nal = N[C@@H](Cc1cccc2ccccc12)C(=O)O; NMeNle = CCCC[C@H](NC)C(=O)O

Key:
[1] = in vivo stability studies in BALB/c mice; conditions: i.v.
Protocol: Metabolic studies evaluating the stability of the radioligands were carried out in 7- to 8-week-old female BALB/c mice. With the ^111In-labeled peptide derivatives, the studies were performed for the time point of 10 min p.i. (n = 2). With the ^177Lu-labeled peptide derivatives, additional studies were also carried out for the time point of 30 min and 60 min p.i. (n = 1 for each time point). To allow monitoring of the metabolites by analytical HPLC, the mice were injected with a higher amount of radioactivity (6–9 MBq indium-111, 30–45 MBq lutetium-177) corresponding to ∼1 nmol total peptide intravenously through a lateral tail vein. At different time points, the mice were euthanized by cervical dislocation and urine and a blood sample was collected. Liver and kidneys were excised and homogenized in 20 mM HEPES buffer pH 7.3. The amount of intact radiopeptide and the formation of metabolites was analyzed by analytical HPLC. Prior to injection into the HPLC system, all samples were treated as described for human serum and rat organ homogenate samples.

[2] = stability in rat kidney homogenate; format: in vitro ADME; conditions: 120 min incubation, 37 °C
Protocol: (§1) In vitro stability studies characterizing the complex stability as well as the metabolic stability of the radiolabeled peptide analogues were carried out in PBS, fresh human serum, and rat liver and rat kidney homogenates. Organ homogenates were prepared from freshly dissected organs homogenized (IKA-Werke, Staufen, Germany) for 1 min at room temperature (RT) in a 20 mM 4-(2-hydroxyethyl)-1-piperazineethanesulfonic acid (HEPES) buffer at pH 7.3 (30% w/v). A fraction of 0.1 mL of radiolabeled peptide diluted in PBS/HEPES was added to 0.9 mL of medium reaching a final concentration of ∼500 pmol/mL and incubated at 37 °C for up to 120 min in rat organ homogenates (n = 2) and up to 24 h in human serum or PBS (n = 1). At each time point, 100 μL of sample was taken treated with 150 μL of ACN to precipitate proteins centrifuged (2000g, 2 min), diluted with water (1:1), and a fraction of 100 μL was injected to the analytical HPLC system. For serum and tissue homogenates, only the soluble phase extracted after centrifugation was analyzed, whereas the radioactivity lost in the pellet was not considered.

[3] = system: A431-CCK2R/A431-mock xenografts; assay: biodistribution in A431-CCK2R/A431-mock xenografted BALB/c nude mice; format: in vivo
Protocol: Biodistribution studies evaluating the tumor uptake of the radiolabeled peptides were performed in 7- to 9-week-old female athymic BALB/c nude mice (Charles River, Sulzfeld, Germany). For the induction of tumor xenografts, 150 μL of DMEM containing 2 × 10^6 A431-CCK2R and A431-mock cells were injected subcutaneously in the right and left flank of each mouse, respectively. And 10–14 days after injection, tumors reached a medium weight of ∼0.25 g. The mice were divided into groups of four and injected intravenously via a lateral tail vein with 0.2 MBq of ^111In-labeled compound (0.02 nmol) and 0.7 and 1.5 MBq of the ^177Lu-labeled compound (0.02 and 0.15 nmol). At 4 and 12 h p.i., the mice were sacrificed and the tumors and other tissues (blood, lung, heart, muscle, spleen, intestine, liver, kidneys, stomach, and pancreas) were removed, weighed, and their radioactivity measured in the γ counter together with the rest of the body. Initial biodistribution studies were performed with the three ^177Lu-labeled CCK2R-targeting ligands at an injected peptide amount of 20 pmol for the time point of 4 h p.i. From these studies, two peptide analogues were selected to further characterize the biodistribution profile also at a later time point of 12 h p.i. and at a higher injected peptide amount of 150 pmol. Additional animal studies were performed for the ^111In-labeled conjugates. Percentage of injected activity per gram tissue (%IA/g), tumor-to-organ activity ratios, as well as whole body activity were calculated for each sample and statistical analysis using independent two-population t-test (significance level p < 0.05) was performed using Origin software. For the comparison of more than two groups, data were analyzed using one-way analysis of variance (ANOVA) Holm–Bonferroni-adjusted post hoc analysis (significance level p < 0.05) using Microsoft Excel 2010 software (Microsoft Excel 2010, Microsoft Corporation, WA).

[4] = format: in vitro ADME; conditions: 120 min, pH 7.3
Protocol: as §1

human CCK2R [5] = biological target: T1, human CCK2R (Homo sapiens, UniProt P32239); assay: calcium mobilization assay on A431-CCK2R cells; format: cell-based; conditions: mean ± SEM
T1 construct: expressed in transfected cells; host or cells: A431 human epidermoid carcinoma cells, stably transfected (pCR3.1), provided by Dr. Luigi Aloj
T1 sequence (P32239 1-447): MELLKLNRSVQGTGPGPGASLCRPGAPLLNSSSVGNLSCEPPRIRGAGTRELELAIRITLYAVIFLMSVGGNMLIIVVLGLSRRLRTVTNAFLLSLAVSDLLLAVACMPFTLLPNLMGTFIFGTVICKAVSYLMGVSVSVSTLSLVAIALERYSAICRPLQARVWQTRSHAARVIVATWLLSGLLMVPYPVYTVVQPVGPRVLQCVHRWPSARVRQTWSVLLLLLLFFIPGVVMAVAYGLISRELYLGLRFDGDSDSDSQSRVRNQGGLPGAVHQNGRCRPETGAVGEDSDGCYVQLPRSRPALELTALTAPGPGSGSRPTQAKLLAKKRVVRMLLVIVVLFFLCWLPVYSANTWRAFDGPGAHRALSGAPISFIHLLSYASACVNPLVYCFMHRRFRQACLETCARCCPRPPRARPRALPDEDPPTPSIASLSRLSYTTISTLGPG
Protocol: (§2) For calcium mobilization assays evaluating receptor activation, A431-CCK2R cells stably transfected with human CCK2R and AR42J cells expressing rat CCK2R were seeded in flat clear bottom black 96-well plates (Corning, Bagneaux-sur-Loing, France), previously coated with poly-D-ornithine (100 μg/mL, 1 h, 37 °C), at densities of 60 000 and 120 000 cells/well, respectively. After 24 h in culture in a 5% CO2 atmosphere, the cells were rinsed twice with modified HBSS buffer (20 mM HEPES, 0.5 mM MgCl2, 2.6 mM CaCl2, 7.7 mM Na2CO3, 1.4 mM MgSO4, 5.3 mM KCl, 138 mM NaCl, 0.1% BSA, 5.5 mM glucose, 2.5 mM probenecid, pH 7.4) (Sigma-Aldrich, Saint-Quentin-Fallavier, France) and loaded (40 min at 37 °C) with the calcium-sensitive dye Fluo-4 AM (ThermoFisher Scientific, Montigny-Le-Bretonneux, France) containing pluronic acid (20% in dimethyl sulfoxide (DMSO)). […] Briefly, after 18 s recording in basal conditions, 50 μL of graded concentrations of the investigated peptides was added to the incubation medium with a built-in eight-channel pipettor to assess activity. […] EC50 values were calculated with the Prism 4.0 software using a logistic equation. Results were expressed as mean ± standard error of the mean (SEM) for at least three independent experiments in triplicate.

human CCK2R [6] = biological target: T1, human CCK2R; assay: competitive binding against [125I][3-iodo-Tyr12,Leu15]gastrin-I on A431-CCK2R cells; conditions: unlabeled peptide, three independent assays, read-out: apparent IC50
Protocol: Binding assays were carried in 96-well filter plates (MultiScreenHTS-FB, Merck Group, Darmstadt, Germany) pretreated with 10 mM TRIS/139 mM NaCl buffer, pH 7.4 (TRIS-buffer) (2 × 250 μL) before 400 000 A431-CCK2R cells per well were added in 35 mM HEPES buffer, pH 7.4, containing 10 mM MgCl2, 14 μM bacitracin, and 0.5% bovine serum albumin (BSA).[46] Competition assays were performed three times in triplicate using increasing concentrations of competitor (0.003–1000 nM) and a constant amount of radioligand (∼40 000 cpm). After 1 h of incubation at room temperature (RT), the medium was removed and the filters were rapidly rinsed with ice-cold TRIS-buffer (2 × 200 μL), removed and counted in a γ-counter. Half-maximal inhibitory concentration (IC50) values were calculated following nonlinear regression with Origin software (MicroCal Origin 6.1, Northampton, MA). Even though incubation was performed in a hypoosmotic solution disturbing the integrity of the cell membrane, we cannot totally exclude that a limited extent of internalization affecting the binding equilibrium occurred. Therefore, the binding affinity measurements obtained from these studies are presented as “apparent IC50” rather than IC50.

rat CCK2R = biological target: T2, rat CCK2R (Rattus norvegicus, UniProt P30553); assay: calcium mobilization assay on AR42J cells; format: cell-based; conditions: mean ± SEM
T2 construct: physiologically expressing the rat CCK2R; host or cells: AR42J rat pancreatic tumor cells
T2 sequence (P30553 1-452): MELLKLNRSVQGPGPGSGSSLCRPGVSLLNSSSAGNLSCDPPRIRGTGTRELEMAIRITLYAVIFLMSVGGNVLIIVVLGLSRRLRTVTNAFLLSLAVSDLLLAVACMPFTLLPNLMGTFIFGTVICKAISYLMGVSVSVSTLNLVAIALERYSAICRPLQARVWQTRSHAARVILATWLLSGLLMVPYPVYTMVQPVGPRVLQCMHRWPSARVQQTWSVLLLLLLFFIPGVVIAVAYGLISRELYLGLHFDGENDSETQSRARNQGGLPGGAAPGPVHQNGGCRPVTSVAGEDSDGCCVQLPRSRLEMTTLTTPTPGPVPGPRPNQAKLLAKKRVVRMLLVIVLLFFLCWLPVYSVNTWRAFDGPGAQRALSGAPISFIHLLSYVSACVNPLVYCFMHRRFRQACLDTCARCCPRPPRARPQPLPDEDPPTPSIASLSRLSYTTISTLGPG
Protocol: as §2

[7] = log D, octanol/PBS distribution; format: physicochemical; conditions: 111In-labeled peptide
human CCK2R [8] = biological target: T1, human CCK2R; conditions: A431-CCK2R cells, previous assays; cited from earlier work

Compound | intact radiopeptide in rat kidney homogenate [2] | intact radiopeptide in rat liver homogenate [4] | EC50 (human CCK2R [5]) | IC50 (human CCK2R [6]) | EC50 (rat CCK2R) | logD [7] | also measured
CCCC[C@@H](C(=O)N[C@@H](CC(=O)O)C(=O)N[C@@H](Cc1cccc2ccccc12)C(N)=O)N(C)C(=O)[C@H](Cc1c[nH]c2ccccc12)NC(=O)CNC(=O)[C@H](Cc1ccc(O)cc1)NC(=O)[C@@H]1CCCN1C(=O)[C@@H](CCC(=O)O)NC(=O)CN1CCN(CC(=O)O)CCN(CC(=O)O)CCN(CC(=O)O)CC1 [[^111In]In-1] [metal not drawn] ({DOTA}-[dE]PYGW[NMeNle]D[1Nal]-NH2) | ~5% |  |  |  |  |  | intact radiopeptide in blood ([1]; 10 min p.i.): 80.0 ± 5.2%; intact radiopeptide in kidneys ([1]; 10 min p.i.): 23.4 ± 4.2%; intact radiopeptide in liver ([1]; 10 min p.i.): 76.0 ± 0.4%; intact radiopeptide in urine ([1]; 10 min p.i.): 21.8 ± 8.1%
CCCC[C@@H](C(=O)N[C@@H](CC(=O)O)C(=O)N[C@@H](Cc1cccc2ccccc12)C(N)=O)N(C)C(=O)[C@H](Cc1c[nH]c2ccccc12)NC(=O)CNC(=O)[C@H](Cc1ccc(O)cc1)NC(=O)[C@@H]1CCCN1C(=O)[C@@H](CCC(=O)O)NC(=O)CN1CCN(CC(=O)O)CCN(CC(=O)O)CCN(CC(=O)O)CC1 [[^177Lu]Lu-1] [metal not drawn] ({DOTA}-[dE]PYGW[NMeNle]D[1Nal]-NH2) | ~5% |  |  |  |  |  | intact radiopeptide in blood ([1]; 60 min p.i., n = 1): 56.6%; intact radiopeptide in kidneys ([1]; 60 min p.i., n = 1): 8.1%; intact radiopeptide in liver ([1]; 60 min p.i., n = 1): 30.8%; intact radiopeptide in urine ([1]; 60 min p.i., n = 1): 23.0%; tumor uptake in A431-CCK2R xenografts ([3]; 20 pmol, 4 h p.i.): 35 % IA/g; uptake in A431-mock xenografts ([3]; 150 pmol, 4 h p.i.): 0.32 ± 0.14 % IA/g; uptake in blood ([3]; 150 pmol, 4 h p.i.): 0.07 ± 0.04 % IA/g; uptake in heart ([3]; 150 pmol, 4 h p.i.): 0.09 ± 0.03 % IA/g; uptake in spleen ([3]; 150 pmol, 4 h p.i.): 0.18 ± 0.05 % IA/g; tumor retention ([3]; A431-CCK2R xenografts, 12 h p.i. relative to 4 h p.i., 20 pmol): > 60%; reduction of tumor uptake in A431-CCK2R xenografts ([3]; injected peptide amount increased to 150 pmol vs 20 pmol, 4 h p.i.): about 50%
CCCC[C@@H](C(=O)N[C@@H](CC(=O)O)C(=O)N[C@@H](Cc1cccc2ccccc12)C(N)=O)N(C)C(=O)[C@H](Cc1c[nH]c2ccccc12)NC(=O)CNC(=O)[C@H](Cc1ccc(O)cc1)NC(=O)[C@@H]1CCCN1C(=O)[C@@H](CCC(=O)O)NC(=O)CN1CCN(CC(=O)O)CCN(CC(=O)O)CCN(CC(=O)O)CC1 [compound 1] ({DOTA}-[dE]PYGW[NMeNle]D[1Nal]-NH2) |  | 39-53% | 12.3 ± 2.4 nM | 1.4 ± 0.6 nM | 1.74 ± 0.81 nM | -2.03 ± 0.1 | 
CCCC[C@@H](C(=O)N[C@@H](CC(=O)O)C(=O)N[C@@H](Cc1cccc2ccccc12)C(N)=O)N(C)C(=O)[C@H](Cc1c[nH]c2ccccc12)NC(=O)CNC(=O)[C@@H]1CCCN1C(=O)[C@H](Cc1ccc(O)cc1)NC(=O)[C@@H](CCC(=O)O)NC(=O)CN1CCN(CC(=O)O)CCN(CC(=O)O)CCN(CC(=O)O)CC1 [compound 2] ({DOTA}-[dE]YPGW[NMeNle]D[1Nal]-NH2) |  | 50-61% | 14.2 ± 2.07 nM | 0.6 ± 0.3 nM | 1.91 ± 0.49 nM | -1.75 ± 0.1 | 
CCCC[C@@H](C(=O)N[C@@H](CC(=O)O)C(=O)N[C@@H](Cc1cccc2ccccc12)C(N)=O)N(C)C(=O)[C@H](Cc1c[nH]c2ccccc12)NC(=O)[C@@H]1CCCN1C(=O)[C@H](Cc1ccc(O)cc1)NC(=O)[C@H](C)NC(=O)[C@@H](CCC(=O)O)NC(=O)CN1CCN(CC(=O)O)CCN(CC(=O)O)CCN(CC(=O)O)CC1 [compound 3] ({DOTA}-[dE]AYPW[NMeNle]D[1Nal]-NH2) |  |  | 12.4 ± 3.83 nM | 1.3 ± 0.8 nM | 1.27 ± 0.72 nM | -2.05 ± 0.08 | 
DOTA-MG11: DOTA conjugate of the truncated MG analogue [DGlu^1,DesGlu^2–6]MG (MG11) (EAYGWMDF; Synthetic [DGlu1,desGlu2-6]minigastrin: residue 1 is D-Glu, N-terminal DOTA, C-terminal amide (Phe-NH2), Tyr not sulfated) |  |  |  |  |  |  | IC50 (human CCK2R [8]): 0.9 ± 0.3 nM
